Entries after “also recorded” stand apart in the source; their conditions may differ.
Assays:
Format in all cases: physicochemical
[1] = Dynamic vapor sorption (DVS) hygroscopicity, with XRPD before and after DVS; conditions: for crystalline state after DVS (XRPD): humidity cycle 0%-95%-0% RH; for weight gain from 0% to 70% RH: 25° C., cycle of 0%-95%-0% RH
Procedure: Dynamic Vapor Sorption (DVS) was measured via an SMS (Surface Measurement Systems Ltd.) intrinsic DVS instrument. The instrument control software is DVS-Intrinsic control software. Typical Parameters for DVS test are as follows: • Temperature: 25° C. • Gas and flow rate: N2, 200 mL/min • RH range: 0% RH to 95% RH Dynamic vapor sorption (DVS) analyzer was applied to evaluate the hygroscopicity of amorphous with a certain amount of sample obtained by Example 6. The weight gains at each relative humidity were recorded in a cycle of 0%-95%-0% RH. […] Dynamic vapor sorption (DVS) analyzer was applied to evaluate hygroscopicity of Form CSV with a certain amount of sample. The weight gains at each relative humidity were recorded in a cycle of 0%-95%-0% RH. Dynamic vapor sorption (DVS) analyzer was applied to evaluate hygroscopicity of Form CSIII with a certain amount of sample. The weight gains at each relative humidity were recorded in a cycle of 0%-95%-0% RH. The XRPD patterns of Form CSIII before and after DVS test are shown in FIG. 13 and the DVS curve of Form CSIII is shown in FIG. 13.

[2] = Physical and chemical stability on storage (XRPD, HPLC); conditions: for chemical purity during storage: HPLC; for Form after storage: XRPD
Procedure: A certain amount of Form CSV of the present disclosure was stored under different conditions of 40° C./75% RH and 60° C./75% RH. Crystalline form and chemical purity were checked by XRPD and HPLC, respectively. Open packaged: Put the sample into a glass vial, cover the vial with aluminum foil, and punch 5-10 holes in the foil. Sealed packaged: Put the sample into a glass vial, and seal the vial and desiccant in an aluminum foil bag. A certain amount of Form CSIII of the present disclosure was stored under different conditions of 25° C./60% RH and 40° C./75% RH with sealed and open packaged. Crystalline form and chemical purity were checked by XRPD and HPLC, respectively. Open packaged: Put the sample into a glass vial, cover the vial with an aluminum foil, and punch 5-10 holes in the foil. Sealed packaged: Put the sample into a glass vial, and seal the vial and desiccant in an aluminum foil bag.

[3] = Adhesiveness: material sticking to the punch after compression; conditions: about 30 mg, 8 mm round tooling, 10 kN held for 30s
Procedure: ENERPAC manual tablet press was used for testing. Approximately 30 mg of Form CSV was weighed and then added into the dies of @8 mm round tooling, compressed at 10 kN and held for 30s. The punch was weighed and the amount of material sticking to the punch was calculated. The compression was repeated twice and the maximum amount and average amount of material sticking to the punch during the compression were recorded.

[4] = Physical stability upon mechanical force (tableting, XRPD)
Source text: A certain amount of Form CSV was compressed into tablet under different pressures with suitable tableting die. Crystalline form before and after tableting were checked by XRPD.

[5] = Flowability by compressibility index (bulk and tapped density)
Procedure: Compressibility index is usually utilized to evaluate the flowability of powder or granules during the drug product process. Compressibility index test method is as follows: a certain amount of powder was added into a measuring cylinder and bulk volume was recorded. Then the powder was tapped to make it in the tightest state and the tapped volume was recorded. The bulk density (ρ0) and tapped density (ρf) were calculated and compressibility index was calculated according to c=(ρf−ρ0)/ρf.

[6] = 40° C./75% RH, open and sealed package

| Structure (SMILES) | crystalline state after DVS (XRPD) [1] | chemical purity during storage ([2]; 25° C./60% RH, at least 6 months) | time for which the form is stable ([2]; 25° C./60% RH, sealed and open packaged) | chemical purity during storage ([2]; 40° C./75% RH, at least 2 months) | time for which the form is stable [2, 6] | weight gain from 0% to 70% RH ([1]; DVS) [%] | average adhesion amount [3] [mg] | Solid form after tableting ([4]; Pressure 5 kN) | Solid form after tableting ([4]; Pressure 10 kN) | Solid form after tableting ([4]; Pressure 20 kN) | Form after storage ([2]; 40° C./75% RH, open packaged, 9 months) | Form after storage ([2]; 40° C./75% RH, sealed packaged, 9 months) | time for which the form is stable ([2]; 60° C./75% RH, open and sealed package) | Form after storage ([2]; 60° C./75% RH, open packaged, 1 month) | Form after storage ([2]; 60° C./75% RH, sealed packaged, 1 month) | Bulk density [5] [g/mL] | Tapped density [5] [g/mL] | Flowability ([5]; class by compressibility index, ICH Q4B Annex 13) | weight gain of amorphous from 0 to 70% RH relative to that of Form CSV ([1]; DVS, 0 to 70% RH) | weight gain from 0% to 70% RH ([1]; DVS, listed as prior art amorphous) [%] |
| --- | --- | --- | --- | --- | --- | --- | --- | --- | --- | --- | --- | --- | --- | --- | --- | --- | --- | --- | --- | --- |
| O=C(O)CCCc1cc2cc(Cl)ccc2n1S(=O)(=O)c1ccc2ncsc2c1 [Form CSIII, 5-Chloro-1-[(6-benzothiazolyl)sulfonyl]-1H-indole-2-butanoic acid] | remains unchanged | above 99.5% | at least 6 months | above 99.5% | at least 2 months |  |  |  |  |  |  |  |  |  |  |  |  |  |  |  |
| O=C(O)CCCc1cc2cc(Cl)ccc2n1S(=O)(=O)c1ccc2ncsc2c1 [Form CSV, 5-Chloro-1-[(6-benzothiazolyl)sulfonyl]-1H-indole-2-butanoic acid] | remains unchanged; also recorded: doesn't change |  |  |  | at least 9 months | 0.35 | 0.45 | Form CSV | Form CSV | Form CSV | Form CSV | Form CSV | at least 1 month | Form CSV | Form CSV | 0.412 | 0.515 | Fair (16-20) |  |  |
| O=C(O)CCCc1cc2cc(Cl)ccc2n1S(=O)(=O)c1ccc2ncsc2c1 [amorphous, 5-Chloro-1-[(6-benzothiazolyl)sulfonyl]-1H-indole-2-butanoic acid, reference compound] |  |  |  |  |  | 1.18 |  |  |  |  |  |  |  |  |  |  |  |  | about 3.4 times | 1.18 |
